Experimental data reported in PMC12668310, “High‐Throughput Synthesis and Screening of a Cyanimide Library Identifies Selective Inhibitors of ISG15‐Specific Protease mUSP18” (Angewandte Chemie (International Ed. in English), 2025).

Tests used:
Flag-mUSP18 = target: T1, Flag-mUSP18 (Mus musculus, UniProt Q9WTV6); experiment: Gel-based ABPP with Rho-mISG15ct-PA probe in HEK293T cells overexpressing Flag-mUSP18; format: cell-based, murine; details: live HEK293T cells, Flag-mUSP18, 4 h treatment
T1 construct: expressed in transfected cells; host or cells: HEK293T
T1 sequence (Q9WTV6 1-368): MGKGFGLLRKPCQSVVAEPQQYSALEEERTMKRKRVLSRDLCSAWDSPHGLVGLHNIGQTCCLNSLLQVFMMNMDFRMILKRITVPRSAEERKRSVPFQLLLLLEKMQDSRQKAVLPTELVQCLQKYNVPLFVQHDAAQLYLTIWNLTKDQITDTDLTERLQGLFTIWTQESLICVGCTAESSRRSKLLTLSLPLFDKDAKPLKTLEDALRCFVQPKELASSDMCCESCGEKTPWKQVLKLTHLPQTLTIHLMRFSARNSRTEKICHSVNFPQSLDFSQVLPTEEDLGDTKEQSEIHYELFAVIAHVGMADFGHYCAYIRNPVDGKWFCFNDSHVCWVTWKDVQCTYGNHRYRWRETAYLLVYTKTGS
Description: To assess the cellular target engagement and cell permeability of these inhibitors, we performed activity‐based protein profiling. […] Following washing and cell lysis, cell extracts were incubated with a Rhodamine‐tagged murine ISG15 C‐terminal domain propargylamide activity‐based probe (Rho‐mISG15ct‐PA), which covalently labels the active site cysteine of active deISGylating enzymes.^[ [41] ^] The labelled enzymes were resolved by SDS‐PAGE and imaged by in‐gel fluorescence, where inhibition of USP18 is reflected by disappearance of the USP18‐probe‐labelled bands around 55 kDa (Figures 6a, S11A). All three inhibitors engaged with cellular mUSP18 in a dose‐dependent manner, with BB07CA902 and BB07CA28 showing efficient inhibition already at 1 µM concentration. […] The in‐cell selectivity of these inhibitors for USP18 over DUBs was confirmed in a similar ABPP experiment using a Rhodamine‐tagged ubiquitin propargylamide probe (Rho‐Ub‐PA),^[ [42] ^] which labels the active site cysteine of all active cysteine DUBs.
Figure 6 Inhibition of murine USP18 activity in living cells. a) Gel‐based ABPP potency assessment using a Rho‐mISG15ct‐PA probe in HEK293T cells overexpressing Flag‐mUSP18. At 24 h following transfection, cells were incubated with DMSO or increasing concentrations of indicated inhibitors for 4 h, lysed, and treated with Rho‐mISG15ct‐PA probe. Top panel: fluorescence scan. Middle panel: anti‐Flag western blot. Bottom panel: anti‐GAPDH western blot confirms equal loading. b) Accumulation of ISGylation in mouse IFN‐β‐stimulated EL4 cells. At 24 h following mouse IFN‐β treatment, cells were incubated with DMSO or increasing concentrations of indicated inhibitors for 4 h, lysed, and treated with Rho‐mISG15ct‐PA probe. […] Middle panel: fluorescence scan. […]
Samples were then diluted 3-fold with water and analyzed by mass spectrometry by injecting 2 μL into a Waters XEVO-G2 XS Q-TOF mass spectrometer equipped with an electrospray ion source in positive mode (capillary voltage 1.2 kV, desolvation gas flow 900 L/h, T = 60 °C) with a resolution of R = 26,000. […]

[1] = target: T2, human USP18/ISG15 interaction (Homo sapiens, UniProt Q9UMW8); experiment: NanoBRET assay, hUSP18/ISG15 interaction in HEK293T cells
T2 sequence (Q9UMW8 1-372): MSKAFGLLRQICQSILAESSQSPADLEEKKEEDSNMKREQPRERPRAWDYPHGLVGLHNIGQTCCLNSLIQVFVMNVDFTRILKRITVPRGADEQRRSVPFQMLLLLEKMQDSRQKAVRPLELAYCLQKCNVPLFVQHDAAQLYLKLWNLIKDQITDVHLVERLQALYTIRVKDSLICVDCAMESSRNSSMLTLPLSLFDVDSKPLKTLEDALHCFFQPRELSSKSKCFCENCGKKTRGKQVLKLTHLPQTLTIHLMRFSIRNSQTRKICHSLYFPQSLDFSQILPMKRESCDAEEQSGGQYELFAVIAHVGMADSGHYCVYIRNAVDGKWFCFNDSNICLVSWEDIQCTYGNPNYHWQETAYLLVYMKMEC
Description: We tested whether our USP18 activity inhibitor could also affect USP18's nonenzymatic function using our recently developed NanoBRET assay to monitor the interactions of USP18 with STAT2 and ISG15.^[ [43] ^]
normalised to the DMSO control and inhibition was assessed by fitting the data to a dose-
Data are shown as mean ± SD from one biological replicate with
three technical replicates.
Transient NanoBRET assays were performed
following the manufacturer’s instructions (Promega). Briefly, HEK293T cells were transfected
with NanoLuc and HaloTag fusion vectors at 1:100 ratio (20 ng NanoLuc and 2 µg HaloTag
plasmid). After approx. 20 h, cells were harvested, resuspended in phenol red–free Opti-MEM
media supplemented with 4% FCS, and plated in white, flat-bottom, 96-well tissue culture
Immediately before signal detection,
NanoBRET Nano-Glo substrate (Promega) was added, and luminescence was recorded using
nm (HaloTag acceptor). The corrected NanoBRET ratio (mBU) was calculated by dividing the
acceptor signal by the donor signal and subtracting the background signal obtained from the

mUSP18 = target: T3, mUSP18 (Mus musculus, UniProt Q9WTV6); experiment: kinact/KI determination (kobs plot); format: biochemical, murine
T3 construct: (46-368); His-tag (N); made in house
T3 sequence (Q9WTV6 46-368): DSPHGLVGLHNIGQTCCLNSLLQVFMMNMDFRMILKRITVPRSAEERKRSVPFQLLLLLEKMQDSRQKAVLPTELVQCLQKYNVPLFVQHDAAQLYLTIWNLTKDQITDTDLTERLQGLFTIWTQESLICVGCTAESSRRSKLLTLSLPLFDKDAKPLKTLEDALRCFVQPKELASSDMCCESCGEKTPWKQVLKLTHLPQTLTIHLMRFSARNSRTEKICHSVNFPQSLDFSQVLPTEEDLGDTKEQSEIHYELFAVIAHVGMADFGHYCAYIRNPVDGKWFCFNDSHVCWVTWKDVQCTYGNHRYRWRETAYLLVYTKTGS

concentration at which inhibition of mUSP18 probe labelling is observed (Flag-mUSP18) [µM]	inhibition of hUSP18/ISG15 interaction [1]	kinact/KI (mUSP18) [M⁻¹ s⁻¹]	SMILES
≤ 1	–	–	Cc1cc(C(=O)N[C@H]2C[C@@H]3CN(C#N)C[C@@H]3C2)ccc1Br [BB07CA28]
≤ 1	did not observe any inhibition	4650	Cc1cc(C(=O)N[C@H]2C[C@@H]3CN(C#N)C[C@@H]3C2)ccc1C(C)C [BB07CA902]
